Experimental findings from US20050079594A1, “Method of removing a biofilm” (Karine Marion, priority 2002, published 2005) are described below.

The subject of one assay is biofilm 1. The assay is described as follows: Area covered by biofilm 1 (staining, image analysis). It counts as cell-based. How it is done: The method was tested and implemented experimentally on five types of biofilm; biofilms 1, 2, 3 and 5 were obtained using an in vitro model that mimics the hemodialysis generator: • biofilm 1: enriched with nutrients for accelerated growth (3 days) moderate thickness (about 10^5 CFU/cm^2), very rich in slime; • biofilm 2: not enriched with nutrients having grown over 1 month, equivalent to those actually encountered in dialysis generators (about 10^3 CFU/cm^2) very rich in scale crystals; • biofilm 3: enriched with nutrients for accelerated growth (5 days), thick (about 10^9 CFU/cm^2) very rich in slime; • biofilm 4: specimen of tubing conveying water for hemodialysis, taken from a center, covered with a biofilm of about 10^3 CFU/cm^2 but having grown over more than one year; and • biofilm 5: enriched with nutrients for accelerated growth, having grown in a “preventive” model over three weeks. Production of the In Vitro Model
A 250 ml reactor vessel was filled with a nonsterile dialysate, prepared by diluting sterile apyrogenic hemodialysis concentrates (Clearflex® from Bieffe Medical) with nonsterile osmosed water containing Pseudomonas putida, Pseudomonas fluorescens and Flavimonas orizibitans, produced continuously in the laboratory.
The contaminating medium was circulated in a closed circuit in a loop of silicon tubing 1.5 meters in length and 5 mm inside diameter with a flow rate of 500 ml/min by a peristaltique pump. All the tubing and the reactor vessel were sterilized beforehand in an autoclave at 121° C. for 30 minutes. Thus, the dialysate naturally contaminated by the bacteria in the water was the only source of microorganisms.
The entire system was maintained at a temperature of 37° C. by a hotplate on which the reactor vessel was placed.
In the case of biofilms 1, 3 and 5, the bacterial growth and consequently the development of the biofilm were accelerated by adding an LB culture medium diluted 50-fold, i.e. an LB culture medium diluted to […] and topped up with a flow equal to 1/10th of that of the dialysate. The dialysate and culture medium top-up flow rates, regulated by a peristaltic pump, were 5 and 0.5 ml/minute, respectively.
The tubings covered with biofilms 1, 2 and 3 were cut into segments 5 cm in length. For screening on biofilms 1 and 2, each segment for undergoing one of the various treatments to be investigated was selected by drawing lots. Control specimens taken at random from the silicon loop were kept untreated.
The tubing segments to be treated were attached to the descending branch of a set-up consisting of two tubings—one ascending and the other descending, a peristaltic pump and a water bath (for treatments carried out a temperature above 20° C.). The product to be tested in “recirculation” mode was dissolved in a 100 ml flask and driven by the peristaltic pump at a rate of 500 ml/min in a closed circuit through the tubings for a duration corresponding to the contact times given in table II. The product to be tested in “static” mode was dissolved in a 100 ml flask and driven by the peristaltic pump until the tubings had been filled; the pump was then stopped and the product left in stasis for the desired contact time. After each treatment by a given product, the tubing specimens were rinsed for five minutes with osmosed water.
The control and treated biofilms were stained: • either with a 0.25% crystal violet solution; • or with a Baclight® fluorochrome solution (Syto 9 and propidium iodide). The viable bacteria show up green while the dead bacteria show up yellow or red.
The silicon tubing specimens covered with stained biofilms were attached to glass slides and observed under an optical microscope, the microscope being connected to a camera and to “Scion Images” image analysis software. […]

For another assay, the system named is biofilm 2. The assay can be described thus: Area covered by biofilm 2 (staining, image analysis). Conditions: Treat. No. 7, 3%, 37 °C, 5 min, Recirc. It counts as cell-based. As for the experimental part: The method was tested and implemented experimentally on five types of biofilm; biofilms 1, 2, 3 and 5 were obtained using an in vitro model that mimics the hemodialysis generator: • biofilm 1: enriched with nutrients for accelerated growth (3 days) moderate thickness (about 10^5 CFU/cm^2), very rich in slime; • biofilm 2: not enriched with nutrients having grown over 1 month, equivalent to those actually encountered in dialysis generators (about 10^3 CFU/cm^2) very rich in scale crystals; • biofilm 3: enriched with nutrients for accelerated growth (5 days), thick (about 10^9 CFU/cm^2) very rich in slime; • biofilm 4: specimen of tubing conveying water for hemodialysis, taken from a center, covered with a biofilm of about 10^3 CFU/cm^2 but having grown over more than one year; and • biofilm 5: enriched with nutrients for accelerated growth, having grown in a “preventive” model over three weeks. […] Thus, several (6 to 10) photographs of the same specimen were taken, the stained area was evaluated quantitatively by the image analysis software and a mean covered area value per specimen was calculated. This mean value was compared with the covered area of the untreated control specimens: a percentage reduction in covered area was then calculated.

In the case of Triton, the “Result (removal; % covered area reduction)” value in the assay on biofilm 1 (Treat. No. 2, 5%, RT, 40 min, Stat) is “* (Poor removal 0-25%)”; in the assay with biofilm 1 (Treat. No. 16, 5%, RT, 40 min, Recirc) it was “. (No removal 0)”.

As to `[O-][Cl+3]([O-])([O-])O` [Perchlo ac, Perchloric acid], in the assay with biofilm 1 (Treat. No. 11, 0.05%, RT, 40 min, Stat), the “Result (removal; % covered area reduction)” value is recorded as “. (No removal 0)”.

For the molecule `[K+].[OH-]` [KOH], the “Result (removal; % covered area reduction)” value is reported as “** (Moderate removal 25-50%)” in the assay with biofilm 1 (Treat. No. 13, 0.02N, RT, 40 min, Stat); “** (Moderate removal 25-50%)” in the assay on biofilm 1 (Treat. No. 15, 0.02N, RT, 40 min, Recirc); “*** (Good removal 50-75%)” with biofilm 1 (Treat. No. 21, 0.02N, RT, 1 h, Recirc); “**** (Excellent removal 75-99%)” in the assay on biofilm 1 (Treat. No. 22, 0.02N, RT, 24 h, Recirc); “** (Moderate removal 25-50%)” with biofilm 1 (Treat. No. 27, 0.002N, RT, 40 min, Recirc); “** (Moderate removal 25-50%)” with biofilm 1 (Treat. No. 35, 0.001N, RT, 40 min, Recirc).

Consider `[Na+].[OH-]` [NaOH], for which the “Result (removal; % covered area reduction)” value in the assay with biofilm 1 (Treat. No. 12, 0.01N, RT, 40 min, Stat) is recorded as “* (Poor removal 0-25%)”.

As to Trypsin, the “Result (removal; % covered area reduction)” value in the assay on biofilm 1 (Treat. No. 6, EDTA IX, RT, 40 min, Stat) is “. (No removal 0)”; in the assay on biofilm 1 (Treat. No. 7, 0.25%, 37 °C, 40 min, Stat), “** (Moderate removal 25-50%)”; with biofilm 1 (Treat. No. 29, 0.25%, 37 °C, 40 min, Recirc) it was “. (No removal 0)”; in the assay with biofilm 1 (Treat. No. 37, 1%, 37 °C, 40 min, Recirc) it was “* (Poor removal 0-25%)”.

`O=C(O)C(Cl)(Cl)Cl` [TCA, Trichloroacetic acid]: in the assay with biofilm 1 (Treat. No. 14, 0.25%, RT, 40 min, Stat), the “Result (removal; % covered area reduction)” value is recorded as “. (No removal 0)”.

Consider `O=C(O)CC(O)(CC(=O)O)C(=O)O` [Citric acid], for which the “Result (removal; % covered area reduction)” value in the assay on biofilm 2 was “**** (Excellent removal 75-99%)”; with biofilm 1 (Treat. No. 26, 3%, RT, 40 min, Recirc) it was “. (No removal 0)”.

On to `CCCCCCCCCCCCOS(=O)(=O)[O-].[Na+]` [SDS, Sodium dodecyl sulfate], for which the “Result (removal; % covered area reduction)” value is listed as “** (Moderate removal 25-50%)” with biofilm 1 (Treat. No. 1, 5%, RT, 40 min, Stat) and “*/” in the assay with biofilm 1 (Treat. No. 8, 5%, RT, 40 min, Recirc).

B1: Thermolys: enzyme, Sigma (protein, UniProt P00800 233-548, looked up)
Thermolysin: ITGTSTVGVGRGVLGDQKNINTTYSTYYYLQDNTRGNGIFTYDAKYRTTLPGSLWADADNQFFASYDAPAVDAHYYAGVTYDYYKNVHNRLSYDGNNAAIRSSVHYSQGYNNAFWNGSQMVYGDGDGQTFIPLSGGIDVVAHELTHAVTDYTAGLIYQNESGAINEAISDIFGTLVEFYANKNPDWEIGEDVYTPGISGDSLRSMSDPAKYGDPDHYSKRYTGTQDNGGVHINSGIINKAAYLISQGGTHYGVSVVGIGRDKLGKIFYRALTQYLTPTSNFSQLRAAAVQSATDLYGSTSQEVASVKQAFDAVGVK
As to B1, the “Result (removal; % covered area reduction)” value with biofilm 1 (Treat. No. 33, 2 mg/50 ml, 37 °C, 40 min, Recirc) is “** (Moderate removal 25-50%)”.
